Reference: US8686044B2, “Amide derivative, pest control agent containing the amide derivative, and use of the amide derivative” (Mitsui Chemicals Agro, Inc., priority 2008, dated 2014)

Legend:
Assay type in all cases: in vivo
Spodoptera litura = experiment: Pesticidal test against Spodoptera litura (cabbage leaf dip); conditions: foliar, 144 h, concentration 1 ppm, 2-stage larvae, examined after 6 days, 25° C., read-out: pesticidal rate
How it was run: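 Cabbage leaf pieces dipped 30 seconds in compound solution at a predetermined concentration and air-dried, then offered to second-stage larvae, five per group in two replicates. Held at 25° C. Living and dead larvae counted after 6 days.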

Plutella xylostella = experiment: Pesticidal test against Plutella xylostella (cabbage leaf dip); conditions: foliar, 144 h, concentration 1 ppm, 2-stage larvae, examined after 6 days, 25° C., read-out: pesticidal rate
How it was run: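 Second-stage larvae (5 per group, two replicates) were released onto air-dried cabbage leaf discs that had been immersed for 30 seconds in compound solution at a set concentration. Mortality was scored after 6 days at 25° C.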

Adoxophyes honmai = experiment: Pesticidal test against Adoxophyes honmai (artificial feed dip); conditions: 144 h, 2-stage larvae, examined after 6 days, 25° C., read-out: pesticidal rate; for pest or weed control at 1 ppm: concentration 1 ppm
Description: (§1) Pesticidal Test against Adoxophyes honmai A thinly sliced artificial feed was immersed for 30 seconds in a chemical solution in which a test compound had been prepared at a predetermined concentration, and air-dried, and then put into a 7 cm polyethylene cup having a filter paper laid on the bottom thereof, and 2-stage larvae of Adoxophyes honmai were released. They were left to stand in a thermostatic chamber at 25° C., and the numbers of the living pests and the dead pests were examined after 6 days. The test was carried out with five larvae per group in two replicates. Further, the above compound (A) was used as a comparative compound.

Helicoverpa armigera = experiment: Pesticidal test against Helicoverpa armigera (cabbage leaf disk dip); conditions: foliar, 72 h, concentration 1 ppm, 2-stage larvae, examined after 3 days, 25° C., read-out: pesticidal rate
Description: as §1, with “Helicoverpa armigera” for “Adoxophyes honmai”, “cabbage leaf disk” for “thinly sliced artificial feed”, “air-dried. The leaf disk was” for “air-dried, and then”, “6-hole plastic” for “7 cm polyethylene”, “released with one insect being released per hole.” for “released.”, “3” for “6”

Musca domestica = experiment: Pesticidal test against Musca domestica (petri dish dry film); conditions: 24 h, concentration 100 ppm, female adults, examined after 1 day, 25° C., read-out: pesticidal rate
Description: Pesticidal Test against Musca domestica
1 ml of an acetone solution in which a test compound had been prepared at a predetermined concentration was added dropwise to a petri dish having a diameter of 9 cm, and air-dried, and then the female adults of Musca domestica were released and the petri dish was capped. They were left to stand in a thermostatic chamber at 25° C., and the numbers of the living pests and the dead pests were examined after 1 day. The test was carried out with five larvae per group in two replicates.

Choristoneura magnanima = experiment: Pesticidal test against Choristoneura magnanima (artificial feed dip); conditions: 144 h, 2-stage larvae, examined after 6 days, 25° C., read-out: pesticidal rate; for pest or weed control at 1 ppm: concentration 1 ppm
Description: as §1, with “Choristoneura magnanima” for “Adoxophyes honmai”

Laodelphax striatellus = experiment: Pesticidal test against Laodelphax striatellus (rice seedling spray); conditions: 144 h, concentration 100 ppm, 3-stage larvae, examined after 6 days, 25° C., read-out: pesticidal rate
How it was run: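 Rice seedlings sprayed with 2.5 ml acetone solution of compound at a predetermined concentration, air-dried, then infested with third-stage Laodelphax striatellus larvae in capped water-containing tubes at 25 °C. Living and dead insects counted after 6 days; ten larvae per group, two replicates.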

O=C(Nc1cccc(C(=O)Nc2c(I)cc(C(F)(C(F)(F)F)C(F)(F)C(F)(F)F)cc2C(F)(F)F)c1)c1ccc(F)cc1 (stereo not drawn) [6-505]
≥ 70%: pest or weed control at 1 ppm (Spodoptera litura) | pest or weed control at 1 ppm (Plutella xylostella) | pest or weed control at 1 ppm (Adoxophyes honmai) | pest or weed control at 1 ppm (Helicoverpa armigera) | pest or weed control at 100 ppm (Musca domestica)

CN(C(=O)c1ccc(C#N)cc1)c1cccc(C(=O)Nc2c(I)cc(C(F)(C(F)(F)F)C(F)(F)F)cc2I)c1F [7-1281]
≥ 70%: pest or weed control at 1 ppm (Spodoptera litura) | pest or weed control at 1 ppm (Plutella xylostella) | pest or weed control at 1 ppm (Choristoneura magnanima) | pest or weed control at 100 ppm (Laodelphax striatellus)

CN(C(=O)c1cccnc1Cl)c1cccc(C(=O)Nc2c(I)cc(C(F)(C(F)(F)F)C(F)(F)C(F)(F)F)cc2I)c1 (stereo not drawn) [7-90]
≥ 70%: pest or weed control at 1 ppm (Spodoptera litura) | pest or weed control at 1 ppm (Plutella xylostella) | pest or weed control at 1 ppm (Choristoneura magnanima) | pest or weed control at 1 ppm (Helicoverpa armigera) | pest or weed control at 100 ppm (Laodelphax striatellus) | pest or weed control at 100 ppm (Musca domestica)

CN(C(=O)c1cccc(C#N)c1)c1cccc(C(=O)Nc2c(I)cc(C(F)(C(F)(F)F)C(F)(F)C(F)(F)F)cc2C(F)(F)F)c1 (stereo not drawn) [7-522]
≥ 70%: pest or weed control at 1 ppm (Spodoptera litura) | pest or weed control at 1 ppm (Plutella xylostella) | pest or weed control at 1 ppm (Adoxophyes honmai) | pest or weed control at 1 ppm (Helicoverpa armigera) | pest or weed control at 100 ppm (Musca domestica)

O=C(Nc1c(I)cc(C(F)(C(F)(F)F)C(F)(F)C(F)(F)F)cc1C(F)(F)F)c1cccc(NC(=O)c2c(F)cccc2F)c1 (stereo not drawn) [6-524]
≥ 70%: pest or weed control at 1 ppm (Spodoptera litura) | pest or weed control at 1 ppm (Plutella xylostella) | pest or weed control at 1 ppm (Adoxophyes honmai) | pest or weed control at 1 ppm (Helicoverpa armigera) | pest or weed control at 100 ppm (Musca domestica)

O=C(Nc1c(I)cc(C(F)(C(F)(F)F)C(F)(F)F)cc1C(F)(F)F)c1cccc(NC(=O)c2ccc(F)cc2Cl)c1 [6-449]
≥ 70%: pest or weed control at 1 ppm (Spodoptera litura) | pest or weed control at 1 ppm (Plutella xylostella) | pest or weed control at 1 ppm (Adoxophyes honmai) | pest or weed control at 1 ppm (Helicoverpa armigera)

CN(C(=O)c1ccc(C#N)cc1F)c1cccc(C(=O)Nc2c(Br)cc(C(F)(C(F)(F)F)C(F)(F)F)cc2C(F)(F)F)c1F [7-1606]
≥ 70%: pest or weed control at 1 ppm (Spodoptera litura) | pest or weed control at 1 ppm (Plutella xylostella) | pest or weed control at 10 ppm (Choristoneura magnanima; concentration 10 ppm) | pest or weed control at 1 ppm (Helicoverpa armigera) | pest or weed control at 100 ppm (Laodelphax striatellus)

N#Cc1cccc(C(=O)Nc2cccc(C(=O)Nc3c(I)cc(C(F)(C(F)(F)F)C(F)(F)C(F)(F)F)cc3C(F)(F)F)c2)c1 (stereo not drawn) [6-522]
≥ 70%: pest or weed control at 1 ppm (Spodoptera litura) | pest or weed control at 1 ppm (Plutella xylostella) | pest or weed control at 1 ppm (Adoxophyes honmai) | pest or weed control at 1 ppm (Helicoverpa armigera) | pest or weed control at 100 ppm (Musca domestica)

CN(C(=O)c1cccc(F)c1)c1cccc(C(=O)Nc2c(I)cc(C(F)(C(F)(F)F)C(F)(F)C(F)(F)F)cc2C(F)(F)F)c1 (stereo not drawn) [7-504]
≥ 70%: pest or weed control at 1 ppm (Spodoptera litura) | pest or weed control at 1 ppm (Plutella xylostella) | pest or weed control at 1 ppm (Choristoneura magnanima) | pest or weed control at 100 ppm (Musca domestica)

N#Cc1cccc(C(=O)Nc2cccc(C(=O)Nc3c(Br)cc(C(F)(C(F)(F)F)C(F)(F)C(F)(F)F)cc3Br)c2F)c1 (stereo not drawn) [6-1202]
≥ 70%: pest or weed control at 1 ppm (Spodoptera litura) | pest or weed control at 1 ppm (Plutella xylostella) | pest or weed control at 1 ppm (Adoxophyes honmai) | pest or weed control at 100 ppm (Laodelphax striatellus)

O=C(Nc1cccc(C(=O)Nc2c(I)cc(C(F)(C(F)(F)F)C(F)(F)C(F)(F)F)cc2I)c1F)c1ccc(F)cc1 (stereo not drawn) [6-1341]
≥ 70%: pest or weed control at 1 ppm (Spodoptera litura) | pest or weed control at 1 ppm (Plutella xylostella) | pest or weed control at 1 ppm (Adoxophyes honmai) | pest or weed control at 1 ppm (Helicoverpa armigera) | pest or weed control at 100 ppm (Laodelphax striatellus) | pest or weed control at 100 ppm (Musca domestica)

CN(C(=O)c1ccc(C#N)cc1)c1cccc(C(=O)Nc2c(I)cc(C(F)(C(F)(F)F)C(F)(F)C(F)(F)F)cc2C(F)(F)F)c1F (stereo not drawn) [7-1829]
≥ 70%: pest or weed control at 1 ppm (Spodoptera litura) | pest or weed control at 1 ppm (Plutella xylostella) | pest or weed control at 1 ppm (Choristoneura magnanima) | pest or weed control at 1 ppm (Helicoverpa armigera) | pest or weed control at 100 ppm (Laodelphax striatellus) | pest or weed control at 100 ppm (Musca domestica)

N#Cc1ccc(C(=O)Nc2cccc(C(=O)Nc3c(Br)cc(C(F)(C(F)(F)F)C(F)(F)C(F)(F)F)cc3C(F)(F)F)c2F)cc1 (stereo not drawn) [6-1673]
≥ 70%: pest or weed control at 1 ppm (Spodoptera litura) | pest or weed control at 1 ppm (Plutella xylostella) | pest or weed control at 1 ppm (Choristoneura magnanima) | pest or weed control at 1 ppm (Helicoverpa armigera) | pest or weed control at 100 ppm (Laodelphax striatellus) | pest or weed control at 100 ppm (Musca domestica)

O=C(Nc1cccc(C(=O)Nc2c(I)cc(C(F)(C(F)(F)F)C(F)(F)C(F)(F)F)cc2C(F)(F)F)c1)c1cccc(F)c1 (stereo not drawn) [6-504]
≥ 70%: pest or weed control at 1 ppm (Spodoptera litura) | pest or weed control at 1 ppm (Plutella xylostella) | pest or weed control at 1 ppm (Adoxophyes honmai) | pest or weed control at 1 ppm (Helicoverpa armigera) | pest or weed control at 100 ppm (Musca domestica)

O=C(Nc1cccc(C(=O)Nc2c(I)cc(C(F)(C(F)(F)F)C(F)(F)F)cc2I)c1F)c1cccc(F)c1 [6-1262]
≥ 70%: pest or weed control at 1 ppm (Spodoptera litura) | pest or weed control at 1 ppm (Plutella xylostella) | pest or weed control at 1 ppm (Adoxophyes honmai) | pest or weed control at 1 ppm (Helicoverpa armigera) | pest or weed control at 100 ppm (Laodelphax striatellus)

O=C(Nc1cccc(C(=O)Nc2c(Br)cc(C(F)(C(F)(F)F)C(F)(F)C(F)(F)F)cc2C(F)(F)F)c1)c1cccc(F)c1 (stereo not drawn) [6-348]
≥ 70%: pest or weed control at 1 ppm (Spodoptera litura) | pest or weed control at 1 ppm (Plutella xylostella) | pest or weed control at 1 ppm (Adoxophyes honmai) | pest or weed control at 1 ppm (Helicoverpa armigera) | pest or weed control at 100 ppm (Musca domestica)

CN(C(=O)c1cccc(C#N)c1)c1cccc(C(=O)Nc2c(Br)cc(C(F)(C(F)(F)F)C(F)(F)C(F)(F)F)cc2Br)c1F (stereo not drawn) [7-1202]
≥ 70%: pest or weed control at 1 ppm (Spodoptera litura) | pest or weed control at 1 ppm (Plutella xylostella) | pest or weed control at 1 ppm (Adoxophyes honmai) | pest or weed control at 100 ppm (Laodelphax striatellus)

N#Cc1ccc(C(=O)Nc2cccc(C(=O)Nc3c(I)cc(C(F)(C(F)(F)F)C(F)(F)C(F)(F)F)cc3C(F)(F)F)c2)cc1 (stereo not drawn) [6-523]
≥ 70%: pest or weed control at 1 ppm (Spodoptera litura) | pest or weed control at 1 ppm (Plutella xylostella) | pest or weed control at 10 ppm (Adoxophyes honmai; concentration 10 ppm) | pest or weed control at 1 ppm (Helicoverpa armigera) | pest or weed control at 100 ppm (Musca domestica)

O=C(Nc1cccc(C(=O)Nc2c(Br)cc(C(F)(C(F)(F)F)C(F)(F)C(F)(F)F)cc2C(F)(F)F)c1F)c1cccnc1Cl (stereo not drawn) [6-1688]
≥ 70%: pest or weed control at 1 ppm (Spodoptera litura) | pest or weed control at 1 ppm (Plutella xylostella) | pest or weed control at 1 ppm (Adoxophyes honmai) | pest or weed control at 100 ppm (Laodelphax striatellus)

CN(C(=O)c1ccccc1)c1cccc(C(=O)Nc2c(I)cc(C(F)(C(F)(F)F)C(F)(F)C(F)(F)F)cc2I)c1F (stereo not drawn) [7-1338]
≥ 70%: pest or weed control at 1 ppm (Spodoptera litura) | pest or weed control at 1 ppm (Plutella xylostella) | pest or weed control at 1 ppm (Adoxophyes honmai) | pest or weed control at 1 ppm (Helicoverpa armigera) | pest or weed control at 100 ppm (Laodelphax striatellus) | pest or weed control at 100 ppm (Musca domestica)
